Laboratory results taken from the supplement of paper PMC10307832.

How the values were obtained:
Assay in all cases: relative viability (nuclei count vs DMSO), 5 days (fraction); higher = more cells survive
Seliciclib + Decitabine = compound: CC[C@H](CO)Nc1nc(NCc2ccccc2)c2ncn(C(C)C)c2n1 [Seliciclib] + Nc1ncn([C@H]2C[C@H](O)[C@@H](CO)O2)c(=O)n1 [Decitabine] (partner 2 µM)
Summary of the method: (§1)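 Nuclei were stained with Hoechst during a one-step fixation (final 0.05% Triton X-100, 1% formaldehyde, 1 ug/ml Hoechst) carried out 5 days after dosing, then counted on 4× images. The cells, lung cancer lines in 1536-well plates, had been dosed by pin tool the day after seeding with one drug alone or a fixed anchor-drug dose plus five library-drug doses (not always all listed) in √10 steps. Relative viability is the nuclei count in treated wells divided by that in vehicle wells, and each value is the median of duplicate plates.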

Seliciclib + Foretinib = compound: CC[C@H](CO)Nc1nc(NCc2ccccc2)c2ncn(C(C)C)c2n1 [Seliciclib] + COc1cc2c(Oc3ccc(NC(=O)C4(C(=O)Nc5ccc(F)cc5)CC4)cc3F)ccnc2cc1OCCCN1CCOCC1 [Foretinib] (partner 0.25 µM)
Summary of the method: as §1

Seliciclib + Dasatinib = compound: CC[C@H](CO)Nc1nc(NCc2ccccc2)c2ncn(C(C)C)c2n1 [Seliciclib] + Cc1nc(Nc2ncc(C(=O)Nc3c(C)cccc3Cl)s2)cc(N2CCN(CCO)CC2)n1 [Dasatinib] (partner 0.075 µM)
Summary of the method: as §1

Seliciclib + Luminespib = compound: CC[C@H](CO)Nc1nc(NCc2ccccc2)c2ncn(C(C)C)c2n1 [Seliciclib] + CCNC(=O)c1noc(-c2cc(C(C)C)c(O)cc2O)c1-c1ccc(CN2CCOCC2)cc1 [Luminespib] (partner 0.01 µM)
Summary of the method: as §1

| Cell Line | relative viability (Seliciclib + Decitabine; first compound 0.08 µM) | relative viability (Seliciclib + Decitabine; first compound 0.253 µM) | relative viability (Seliciclib + Decitabine; first compound 0.8 µM) | relative viability (Seliciclib + Decitabine; first compound 2.53 µM) | relative viability (Seliciclib + Decitabine; first compound 8 µM) | relative viability (Seliciclib + Foretinib; first compound 0.08 µM) | relative viability (Seliciclib + Foretinib; first compound 0.253 µM) | relative viability (Seliciclib + Foretinib; first compound 0.8 µM) | relative viability (Seliciclib + Foretinib; first compound 2.53 µM) | relative viability (Seliciclib + Foretinib; first compound 8 µM) | relative viability (Seliciclib + Dasatinib; first compound 0.08 µM) | relative viability (Seliciclib + Dasatinib; first compound 0.253 µM) | relative viability (Seliciclib + Dasatinib; first compound 0.8 µM) | relative viability (Seliciclib + Dasatinib; first compound 2.53 µM) | relative viability (Seliciclib + Dasatinib; first compound 8 µM) | relative viability (Seliciclib + Luminespib; first compound 0.08 µM) | relative viability (Seliciclib + Luminespib; first compound 0.253 µM) | relative viability (Seliciclib + Luminespib; first compound 0.8 µM) | relative viability (Seliciclib + Luminespib; first compound 2.53 µM) | relative viability (Seliciclib + Luminespib; first compound 8 µM) |
| --- | --- | --- | --- | --- | --- | --- | --- | --- | --- | --- | --- | --- | --- | --- | --- | --- | --- | --- | --- | --- |
| ChaGo-K-1 | 0.519 | 0.472 | 0.509 | 0.516 | 0.475 | 0.877 | 0.862 | 0.892 | 0.979 | 0.823 | 0.588 | 0.637 | 0.661 | 0.478 | 0.495 | 0.587 | 0.362 | 0.711 | 0.536 | 0.603 |
| EBC-1 | – | – | – | – | – | 0.124 | 0.103 | 0.105 | 0.125 | 0.108 | – | – | – | – | – | – | – | – | – | – |
| EKVX | 0.299 | 0.224 | 0.366 | 0.184 | 0.377 | – | 0.887 | 0.533 | 0.756 | 0.77 | 0.53 | 0.55 | 0.573 | 0.47 | 0.493 | – | 1.03 | 0.794 | 0.821 | 0.642 |
| EMC-BAC-2 | 0.918 | 1.01 | 1 | 0.753 | 0.856 | 1.02 | 0.94 | 0.955 | 1.02 | 0.909 | 0.305 | 0.288 | 0.399 | 0.218 | 0.277 | 1.15 | 1.02 | 1.15 | 1.16 | 1.11 |
| EPLC-272H | 0.373 | 0.432 | 0.336 | 0.395 | 0.342 | 0.707 | 0.72 | 0.56 | 0.623 | 0.494 | 0.329 | 0.298 | 0.408 | 0.183 | 0.266 | 0.297 | 0.204 | 0.214 | 0.177 | 0.231 |
| H3255 | 0.594 | 0.61 | 0.684 | 0.571 | 0.479 | 0.808 | 1.01 | 0.51 | 0.806 | 0.895 | 0.341 | 0.447 | 0.335 | 0.279 | 0.324 | 0.868 | 1.05 | 0.94 | 0.833 | 0.917 |
| HARA | 0.456 | 0.655 | 0.56 | 0.474 | 0.6 | 0.95 | 1.06 | 0.943 | 0.982 | 0.714 | 0.288 | 0.274 | 0.319 | 0.228 | 0.245 | 0.727 | 0.764 | 0.65 | 1.12 | 0.581 |
| HCC-15 | 0.685 | 0.814 | 0.629 | 0.457 | 0.527 | 1.06 | 1.13 | 0.968 | 0.959 | 0.724 | 0.645 | 0.633 | 0.461 | 0.512 | 0.448 | 0.275 | 0.386 | 0.304 | 0.33 | 0.309 |
| HCC-44 | 0.946 | 0.996 | 0.99 | 0.927 | 0.906 | – | – | – | – | – | – | – | – | – | – | 0.913 | 1.07 | 1.01 | 0.997 | 0.726 |
| HCC-78 | 0.706 | 0.659 | 0.757 | 0.641 | 0.538 | 0.535 | 0.574 | 0.445 | 0.41 | 0.457 | 0.427 | 0.416 | 0.371 | 0.259 | 0.28 | – | – | – | – | – |
